Results on 1 compound are retold here after patent US8252832B2, “Kinesin inhibitors as cancer therapeutics” (Novartis AG, priority 2007, dated 2012).

Structures are written as SMILES. Marks after values point to notes of the source that are not given here.

The test has as its system MV4; 11-luc disseminated AML disease. Kind of test: MV4; 11-luc disseminated disease model, tumor response and survival. The class given is in vivo, mouse. The procedure: Subcutaneous tumor efficacy studies were performed using outbred athymic nu/nu mice approximately 6-8 weeks old (Charles River Laboratories, Hollister, Calif.). The efficacy study in the disseminated disease model was performed using immunodeficient NOD-SCID female mice approximately 7-8 weeks old (Jackson Laboratories, Bar Harbor, Me.). […] Routine animal care and assurance of welfare were as described above.
Human MV4; 11 acute myelogenous leukemia cells were obtained from American Tissue Culture Collection (catalog #CRL-9591, Rockville, Md.) and tested to be free of Mycoplasma sp. and murine viruses in the IMPACT1 PCR assay panel (RADIL, University of Missouri, Columbia, Mo.). For the disseminated disease model, a stable pool of MV4; 11 cells expressing the luciferase gene was received from Fangxian Sun at the Genomics Institute of the Novartis Research Foundation in San Diego, Calif. (MV4; 11-luc). The MV4; 11 cells were grown in Iscove's modified Dulbecco's medium (Mediatech Inc., catalog #15-016-CV) supplemented with 10% fetal bovine serum (JRH Biosciences, catalog #12003-1000M), 4 mM L-glutamine and 5 ng/mL recombinant human […] (GM-CSF) (R&D Systems, catalog #215-GM). MV4; 11-luc were grown in the same media, but with the addition of 2 micrograms/mL of puromycin for selection of luciferase expression. These cells were grown as suspension cultures, maintained at 37° C. in a humidified atmosphere containing 5% carbon dioxide. Cells were cultured for fewer than 10 passages prior to use. Cells were harvested at approximately 2 million cells/mL, and centrifuged at ˜800×g for 5 minutes at 4° C. and then resuspended in a cold HBSS (Mediatech Inc., catalog #21-021-CV) at a concentration of 25 million cells/mL (containing 50% Matrigel™, BD Biosciences, catalog #354234) for implantation subcutaneously (injection volume of 0.2 mL) or at a concentration of 100 million cells/mL for implantation intravenously (i.v.) via the tail vein (injection volume of 0.1 mL). Mice were irradiated with 3 gray for 3 minutes one day prior to the i.v. cell implant.
The compound IIa (free base) and SB-715992 (free base) were formulated in 20% Captisol for a dose volume of 8 mL/kg. Doses were adjusted to each animal's body weight.
For the efficacy evaluation in the disseminated disease model, female NOD-SCID mice received whole-body irradiation at 3 gray the day before tail vein injection of 10 million cells in 0.1 mL HBSS. Forty mice were randomized and enrolled on study 28 days post-implant, with a mean photon count (dorsal view+ventral view) of approximately 5×10^7 photons/second, as determined by bioluminescence imaging. Approximately 10 minutes prior to imaging, mice were injected i.p. with 150 mg/kg luciferin (Xenogen Corporation, Alameda, Calif.), followed by anesthetization with isoflurane. Photon emission was measured using a charge coupled device camera in the IVIS imaging system (Xenogen Corporation). Briefly, a gray-scale image of the mice was captured, followed by an overlay of a bioluminescence map representing the spatial distribution of photons detected from cleaved luciferin in the cancer cells expressing luciferase. Signal intensity was quantified using a customized version of the IGOR Pro version 4.09A Software (WaveMetrics, Inc., Lake Oswego, Oreg.) called Living Image version 2.50.2 (Xenogen). The sum of all detected photon counts from the dorsal+ventral views was determined. Bioluminescence of cancer cells in the animals was measured by imaging on designated days until the first mice developed hind limb paralysis due to disease burden, the main end point for when to humanely euthanize mice. The day of euthanasia for each mouse was recorded and the remaining percentage of mice surviving was plotted over time (Kaplan-Meier survival analysis). P values were calculated using the log-rank test (GraphPad Prism 4.0 software) to assess differences between treated and control groups (p<0.05 was considered significant). […]

Regarding `CC(C)(C)[C@H](c1nc(-c2cc(F)ccc2F)cn1Cc1ccccc1)N(CC[C@H](N)CF)C(=O)CO` [Compound IIa], the “Median Day of Survival” value (0.25 mg/kg, q4d × 3, i.v) amounted to 27 days; the “Median Day of Survival” value (0.25 mg/kg, q4d × 3, i.v, listed as COMPOUND IIa) is 27** day; the “Median Day of Survival” value (0.5 mg/kg, q4d × 3, i.v) worked out at 31 days; the “Median Day of Survival” value (0.5 mg/kg, q4d × 3, i.v, listed as COMPOUND IIa) was 31** day; the “Median Day of Survival” value (1 mg/kg, q4d × 3, i.v.) stood at 30 days; the “Median Day of Survival” value (1 mg/kg, q4d × 3, i.v, listed as COMPOUND IIa) was 30** day. In addition, the “Δ Tumor bioluminescence, Day 12” value is, setting by setting: (0.25 mg/kg, q4d × 3, i.v) 4.3 × 10^8 photons/sec; (0.5 mg/kg, q4d × 3, i.v) −4.0 × 10^6 photons/sec. Also, where the note is “0.25 mg/kg, q4d × 3, i.v”, the “ΔT/ΔC, Day 12 (%)” value was 46%. For the same compound, the “Regression, Day 12 (%)” value is listed as 9* % (0.5 mg/kg, q4d × 3, i.v) and 80* % (1 mg/kg, q4d × 3, i.v.).
